What was measured:
[1] = molecular target: T1, human TLR8 (Homo sapiens, UniProt Q9NR97); experiment: Agonistic activity of compounds on HEK-Blue hTLR8 cells (QUANTI-Blue reporter, OD620); type: cell-based; details: for EC50 / Emax: HEK-Blue hTLR8 cells; for EC50: 20 hours incubation; for Emax: OD620 at which the activation effect reached the maximum; for activation effect on human TLR8: summary in words
T1 construct: host or cells: HEK-Blue hTLR8 cells (HEK293-derived reporter line; that the line is stably transfected with the human TLR8 gene is own knowledge of the vendor's product)
T1 sequence (Q9NR97 27-1041): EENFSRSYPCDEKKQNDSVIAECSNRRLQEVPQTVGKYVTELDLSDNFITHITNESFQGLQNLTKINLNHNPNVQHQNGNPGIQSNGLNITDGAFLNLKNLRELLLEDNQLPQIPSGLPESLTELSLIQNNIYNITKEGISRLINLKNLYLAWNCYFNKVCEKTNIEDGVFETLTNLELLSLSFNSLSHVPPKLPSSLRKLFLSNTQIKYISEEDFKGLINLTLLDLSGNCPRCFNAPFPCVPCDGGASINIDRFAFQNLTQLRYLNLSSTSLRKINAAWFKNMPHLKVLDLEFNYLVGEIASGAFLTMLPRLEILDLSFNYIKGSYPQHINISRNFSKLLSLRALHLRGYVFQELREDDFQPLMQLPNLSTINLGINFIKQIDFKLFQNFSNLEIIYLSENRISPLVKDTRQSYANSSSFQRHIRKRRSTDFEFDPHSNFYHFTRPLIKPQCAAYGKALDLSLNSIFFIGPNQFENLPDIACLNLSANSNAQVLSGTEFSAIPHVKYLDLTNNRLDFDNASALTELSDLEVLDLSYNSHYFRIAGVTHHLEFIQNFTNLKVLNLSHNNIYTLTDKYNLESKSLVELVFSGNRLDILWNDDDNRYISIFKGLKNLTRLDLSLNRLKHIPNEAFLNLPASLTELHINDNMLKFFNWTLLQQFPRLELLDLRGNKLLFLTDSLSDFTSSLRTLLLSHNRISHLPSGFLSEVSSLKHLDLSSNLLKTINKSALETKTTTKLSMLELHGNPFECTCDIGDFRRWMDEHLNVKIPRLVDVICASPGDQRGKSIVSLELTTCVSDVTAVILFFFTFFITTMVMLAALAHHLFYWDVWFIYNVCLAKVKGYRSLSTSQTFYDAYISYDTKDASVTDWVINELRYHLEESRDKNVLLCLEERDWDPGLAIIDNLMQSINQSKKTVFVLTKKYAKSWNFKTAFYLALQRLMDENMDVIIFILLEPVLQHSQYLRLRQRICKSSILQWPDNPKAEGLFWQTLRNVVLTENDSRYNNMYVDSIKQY
Experimental: • 1. HEK-Blue hTLR8 cells (Invivogen) were cultured in DMEM medium (Hyclone) containing 10% FBS heat-inactivated fetal bovine serum (Corning). On the day of detection, the cell state was observed under a microscope, the cells were collected and resuspended, and the cell concentration was adjusted after counting, 50 µL per well, the total amount of cells was 2×10^4, and the cells were inoculated in a 96-well plate. • 2. After the cells adhered to the wall overnight, 50 µL of the test compound at different concentrations was added to the well plate, so that the final concentrations were 100 µM, 25 µM, 6.25 µM, 1.56 µM, 0.39 µM, 0.10 µM, 0.02 µM, 0.006 µM, 0 µM, or 100 µM, 33.3 µM, 11.11 µM, 3.70 µM, 1.23 µM, 0.41 µM, 0.14 µM, 0.05 µM, 0 µM, and the final concentration of DMSO was 1%. The compound was incubated with the cells in a 37°C, 5% CO2 incubator for 20 hours. • 3. After the incubation, observation was performed under microscope to determine the maximum signal well, the state of the cells with the highest and lowest concentrations of the compound, and whether the compound will crystalize at high concentration. 10 µL of cell culture supernatant was transferred to a new 96-well transparent plate, added with 90 µL of QUANTI-Blue (Invivogen) detection reagent to each well, incubated at 37°C for 3 hours, and OD620 was read with a multifunctional microplate reader (BMG LABTECH). • 4. EC50 was calculated by fitting with Graphpad Prism software log(agonist) vs. Response - Variable slope, and Emax was the OD620 at which the activation effect of the test compound reached the maximum.

[2] = molecular target: T2, human TLR7 (Homo sapiens, UniProt Q9NYK1); experiment: Agonistic activity of compounds on HEK-Blue hTLR7 cells (QUANTI-Blue reporter, OD620); type: cell-based; details: for EC50 / Emax: HEK-Blue hTLR7 cells; for EC50: 20 h incubation; for Emax: OD620 at which the activation effect reached the maximum; for activation effect on human TLR7: summary in words
T2 construct: host or cells: HEK-Blue hTLR7 cells (HEK293-derived reporter line; that the line is stably transfected with the human TLR7 gene is own knowledge of the vendor's product)
T2 sequence (Q9NYK1 27-1049): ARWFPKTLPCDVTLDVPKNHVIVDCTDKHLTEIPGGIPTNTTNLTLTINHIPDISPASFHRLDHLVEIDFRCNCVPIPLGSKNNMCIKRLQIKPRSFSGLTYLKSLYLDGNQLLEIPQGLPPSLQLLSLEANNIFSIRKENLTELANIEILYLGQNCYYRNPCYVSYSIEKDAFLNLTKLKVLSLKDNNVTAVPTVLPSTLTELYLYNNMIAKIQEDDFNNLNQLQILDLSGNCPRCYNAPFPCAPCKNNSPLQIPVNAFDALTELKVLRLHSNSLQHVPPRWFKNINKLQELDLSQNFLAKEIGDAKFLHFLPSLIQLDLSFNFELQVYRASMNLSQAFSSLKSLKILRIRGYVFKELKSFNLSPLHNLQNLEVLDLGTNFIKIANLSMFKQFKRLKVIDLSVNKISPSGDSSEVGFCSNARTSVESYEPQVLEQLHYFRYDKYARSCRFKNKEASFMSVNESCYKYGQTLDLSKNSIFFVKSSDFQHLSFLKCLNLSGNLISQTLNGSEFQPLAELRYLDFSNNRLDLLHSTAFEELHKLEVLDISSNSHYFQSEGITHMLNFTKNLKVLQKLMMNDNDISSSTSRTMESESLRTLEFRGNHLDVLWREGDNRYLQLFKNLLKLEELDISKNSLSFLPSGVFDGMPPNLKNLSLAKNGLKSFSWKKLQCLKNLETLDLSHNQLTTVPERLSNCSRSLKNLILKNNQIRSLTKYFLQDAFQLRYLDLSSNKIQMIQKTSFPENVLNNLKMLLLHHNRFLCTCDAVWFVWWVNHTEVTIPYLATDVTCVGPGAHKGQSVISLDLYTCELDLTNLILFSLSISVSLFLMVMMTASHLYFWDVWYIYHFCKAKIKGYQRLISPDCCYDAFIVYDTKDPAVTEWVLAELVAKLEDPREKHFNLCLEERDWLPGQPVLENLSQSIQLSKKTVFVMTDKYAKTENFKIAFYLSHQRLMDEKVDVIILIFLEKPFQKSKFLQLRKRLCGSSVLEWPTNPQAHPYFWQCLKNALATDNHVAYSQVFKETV
Experimental: • 1. HEK-Blue hTLR7 cells (Invivogen) were cultured in DMEM medium (Hyclone) containing 10% FBS heat-inactivated fetal bovine serum (Corning). On the day of detection, the cell state was observed under a microscope, the cells were collected and resuspended, and the cell concentration was adjusted after counting, 50 µL per well, the total amount of cells was 2×10^4, and the cells were inoculated in a 96-well plate. • 2. After the cells adhered to the wall overnight, 50 µL of the test compound at different concentrations was added into the well plate, so that the final concentrations were 100 µM, 33.3 µM, 11.11 µM, 3.70 µM, 1.23 µM, 0.41 µM, 0.14 µM, 0.05 µM, 0 µM, and the final concentration of DMSO was 1%. The compound was incubated with the cells in a 37°C, 5% CO2 incubator for 20 h. • 3. After the incubation, observation under microscope was performed to determine the maximum signal well, the states of the cells with the highest and lowest concentrations of the compound, and whether the compound will crystalize at high concentration. 10 µL of cell culture supernatant was taken and transferred to a new 96-well transparent plate, 90 µL of QUANTI-Blue (Invivogen) detection reagent was added to each well, and incubated at 37°C for 3 h, and OD620 was read with a multifunctional microplate reader (BMG LABTECH). • 4. EC50 was calculated by fitting with Graphpad Prism software log(agonist) vs. response - Variable slope, and Emax was the OD620 at which the activation effect of the test compound reached the maximum.

SMILES	EC50 [1]	Emax [1]	activation effect on human TLR8 [1]	EC50 [2]	Emax [2]	activation effect on human TLR7 [2]
CCCCc1nc2c(N)nc3cc(C4CCNCC4)sc3c2n1CC1CCOCC1 [Compound 33, 2-butyl-7-(hexahydropyridin-4-yl)-1-(3,4,5,6-tetrahydro-2H-pyran-4-ylmethyl)thieno[3,2-b]imidazo[4,5-d]pyridine-4-amine]	18.9 µM	0.67 OD620	strong activation effect	0.03 µM	1.46 OD620	strong activation effect
CCCCc1nc2c(N)nc3cc(C4CCN(C)CC4)sc3c2[nH]1 [Compound 6, 2-butyl-7-(1-methylpiperidin-4-yl)-1H-imidazo[4,5-d] thieno[3,2-b]pyridine-4-amine]	15.3 µM	1.11 OD620	strong activation effect	0.44 µM	1.08 OD620	strong activation effect
